One assay deals with ESCC cell line KYSE 110. Kind of assay: 5AzaC treatment of ESCC cell line KYSE 110; qMSP and real-time RT-PCR for Reprimo. Format: cell-based. As to conditions: 1 μl of 5 mM 5AzaC per ml of cells every 24 hours for 6 days, harvested day 0, 2, 4, 6. On the procedure: (§1) DNA methylation of Reprimo was determined by qMSP using the ABI 7700 Taqman system (Eads C. A. et al., (2001)). MSP distinguishes methylated alleles of a given gene based on DNA sequence alterations after bisulfite treatment of DNA. Bisulfite treatment converts unmethylated but not methylated cytosines to uracils. Subsequent PCR using primers and probe specific to the corresponding methylated DNA sequence is then performed. (Eads C. A. et al., (2001)).
(§2) The normalized MSP value (NMV) was calculated by dividing the ratio of the qMSP value for Reprimo to β-actin for each sample by the ratio of the qMSP value for Reprimo to, β-actin for Universal Methylated DNA (See Sato F. et al., Cancer Res., 62:6820-6822 (2002) and Shibata, D. M., et al., Cancer Res., 62:5637-5640 (2002)). Qualitative MSP status was determined by analyzing the normalized MSP value. A normalized MSP value of 0.05 was assigned as the cutoff point for classifying methylation status as qualitatively positive (≧0.05) or negative (<0.05). This cutoff point had been previously determined by ROC curve analysis (See Shibata, D. M., et al., (2002)).
(§3) This treatment protocol has been published previously (Shibata, D. M., et al., Cancer Res., 62:5637-5640 (2002)). […]
A general note: Quantitative PCR measures a nucleic acid by following its amplification.

A further assay relates to EAC cell line OE33. Put plainly: 5AzaC treatment of EAC cell line OE33; qMSP and real-time RT-PCR for Reprimo. Format: cell-based. As to conditions: 1 μl of 5 mM 5AzaC per ml of cells every 24 hours for 6 days, harvested day 0, 2, 4, 6. The protocol:
as §1, §2, §3

On to `Nc1ncn([C@H]2C[C@H](O)[C@@H](CO)O2)c(=O)n1` [5AzaC, 5-Aza-2′-Deoxycytidine], for which, in the assay with ESCC cell line KYSE 110, the “Reprimo mRNA expression” value is recorded as “increased Reprimo mRNA expression” and the “Reprimo methylation (qMSP)” value was “reduction in Reprimo methylation”. Moreover, in the assay with EAC cell line OE33, the “Reprimo mRNA expression” value is “increased Reprimo mRNA expression” and the “Reprimo methylation (qMSP)” value was “reduction in Reprimo methylation”.

The values are drawn from patent US20080299566A1, “Methylation of Gene Promoters as a Predictor of Effectiveness of Therapy” (priority 2006, published 2008).
